Here are results for 20 compounds from patent US7670613B2, “Androgen modulators” (Pfizer Inc., priority 2004, dated 2010).

For test [1], the target named is T1, androgen receptor (Homo sapiens, UniProt P10275, Q868H).
T1 construct: a human breast tumor cell line expressing androgen receptor; endogenous in cells; host or cells: MDA-MB453-MMTV clone 54-19 (only the MMTV-luciferase reporter was transfected)
T1 sequence (P10275 1-920 Q868H): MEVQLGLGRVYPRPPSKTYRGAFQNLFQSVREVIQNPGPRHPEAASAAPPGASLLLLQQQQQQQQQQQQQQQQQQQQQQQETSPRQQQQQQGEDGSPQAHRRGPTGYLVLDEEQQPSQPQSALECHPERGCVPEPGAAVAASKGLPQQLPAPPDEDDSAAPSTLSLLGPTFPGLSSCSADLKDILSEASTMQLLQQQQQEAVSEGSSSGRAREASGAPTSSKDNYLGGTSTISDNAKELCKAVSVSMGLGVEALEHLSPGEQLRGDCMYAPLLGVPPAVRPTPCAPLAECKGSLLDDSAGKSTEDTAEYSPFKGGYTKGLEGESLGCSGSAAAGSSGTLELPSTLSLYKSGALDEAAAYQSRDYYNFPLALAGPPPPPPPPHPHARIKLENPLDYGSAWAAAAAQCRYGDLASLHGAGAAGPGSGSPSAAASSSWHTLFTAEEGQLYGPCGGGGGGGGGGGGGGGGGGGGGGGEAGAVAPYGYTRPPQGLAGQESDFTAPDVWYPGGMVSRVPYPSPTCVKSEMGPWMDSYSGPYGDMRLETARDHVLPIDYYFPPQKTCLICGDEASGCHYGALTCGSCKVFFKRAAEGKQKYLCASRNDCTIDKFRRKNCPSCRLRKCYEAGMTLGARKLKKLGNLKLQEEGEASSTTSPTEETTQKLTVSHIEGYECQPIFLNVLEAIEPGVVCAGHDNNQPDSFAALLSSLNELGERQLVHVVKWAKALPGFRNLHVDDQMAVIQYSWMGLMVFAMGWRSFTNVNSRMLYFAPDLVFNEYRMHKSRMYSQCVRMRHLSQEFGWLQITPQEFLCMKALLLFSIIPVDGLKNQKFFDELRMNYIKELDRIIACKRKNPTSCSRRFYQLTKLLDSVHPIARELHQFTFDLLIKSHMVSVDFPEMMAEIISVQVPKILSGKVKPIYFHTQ
The test is described as follows: AR antagonist cell assay (MDA-MB453-MMTV clone 54-19, luciferase reporter). Format: cell-based. Particulars: 100 pM DHT, 17 hr, mean of multiple tests. As for the experimental part: The compounds ability to antagonize the effects of androgen on the androgen receptor were determined in a whole cell assay as described immediately below.
Experimental Procedure for AR Antagonist Cell Assay
This cell line is a stable transfected cell line with MDA-MB453 cell background (a human breast tumor cell line expressing androgen receptor). A MMTV minimal promoter containing ARE was first cloned in front of a firefly luciferase reporter gene. Then the cascade was cloned into transfection vector pUV120puro. Electroporation method was used for transfecting MDA-MB-453 cell. Puromycin resistant stable cell line was selected.
Cell Culture Media and Reagents:
Culture medium: DMEM (high glucose, Gibco cat #: 11960-044), 10% FBS, and 1% L-glutamine
Plating medium: DMEM (phenol red free), 10% charcoal treated HyClone serum, 1% L-glutamine
Assay medium: DMEM (phenol red free), 1% charcoal treated HyClone serum, 1% L-glutamine, and 1% penicillin/streptomycin
3× luciferase buffer: 2% beta-mercaptoethanol, 0.6% ATP, 0.0135% luciferine in cell lysis buffer
• 1. Cells are maintained in culture medium, splitting cells when they reach 80-90% confluence • 2. To test compounds, 10,000 cells/well are plated to opaque 96 cell culture plate in 100 ul/well plating medium, culture for overnight at 37° C. in cell culture incubator • 3. Carefully remove plating medium, then add 80 ul/well of pre-warmed assay medium, add 10 ul/well testing compound (final concentration at) 1000 nM, 200 nM, 40 nM, 8 nM, 1.6 nM, and 0.32 nM), incubate at 37° C. for 30 minutes • 4. Add 10 ul/well freshly prepared DHT (final concentration at 100 pM) to each well, incubate at 37° C. for 17 hr (overnight) • 5.
The results are reported as the mean of multiple tests as described below (the numbers of tests are indicated in the footnote). N.D. denotes that the compound was not tested.

For test [2], the target named is T2, hAR (Homo sapiens, UniProt P10275).
T2 construct: made in house; host or cells: baculovirus/Sf9 insect cells
T2 sequence (P10275 1-920): T1 sequence (P10275 1-920 Q868H) with H868Q
The test is described as follows: Competitive binding analysis on baculovirus/Sf9 generated hAR extracts with 3H-DHT tracer. Particulars: 1 nM 3H-DHT, one hour at 4° C., mean of multiple tests. The method, then:
The description below describes how the assay was carried out.
Competitive binding analysis was performed on baculovirus/Sf9 generated hAR extracts in the presence or absence of different concentrations of test agent and a fixed concentration of ^3H-dihydrotestosterone (^3H-DHT) as tracer. This binding assay method is a modification of a protocol previously described (Liao S., et. al. J. Steroid Biochem. 20:11-17 1984). Briefly, progressively decreasing concentrations of compounds are incubated in the presence of hAR extract (Chang et al. P.N.A.S. Vol. 89, pp. […], 1992), hydroxylapatite, and 1 nM ^3H-DHT for one hour at 4° C. Subsequently, the binding reactions are washed three times to completely remove excess unbound ^3H-DHT. hAR bound ^3H-DHT levels are determined in the presence of compounds (i.e. competitive binding) and compared to levels bound when no competitor is present (i.e. maximum binding). Compound binding affinity to the hAR is expressed as the concentration of compound at which one half of the maximum binding is inhibited.

[3] abbreviates: MDA-MB453-MMTV clone 54-19 cells, read-out: AR Cell IC50.
Setting [4] is: AR Cell IC50, MDA-MB453-MMTV clone 54-19 cells.
Where [5] appears, read: hAR extract, read-out: AR Binding IC50.

Residue numbers refer to the chain shown, from its start. Where two headings read alike, the source gives them in different places.

For the compound `CO[C@H]1CCC[C@H]1Oc1ccc(C#N)c(Cl)c1` (relative stereo) [Example 34, 2-Chloro-4-(cis-2-methoxy-cyclopentyloxy)-benzonitrile], the IC50 in test [1] (setting [3]) came out at 0.34 µM; in test [2] (AR Binding IC50, hAR extract), 0.172 µM.
Consider `CO[C@H]1CCCC[C@H]1Oc1ccc(C#N)c(Cl)c1` (relative stereo) [Example 36, 2-Chloro-4-(cis-2-methoxy-cyclohexyloxy)-benzonitrile], for which the IC50 came to 0.3 µM in test [1] (setting [3]) and 0.123 µM in test [2] (AR Binding IC50, hAR extract).
On to `CO[C@H]1CCCC[C@@H]1Oc1ccc(C#N)c(C(F)(F)F)c1` (relative stereo) [Example 70], for which the IC50 in test [1] (setting [4]) is 0.01 µM; in test [2] (setting [5]), 0.158 µM.
As for `CC1CCCC(Oc2ccc(C#N)cc2Cl)C1C` (single isomer, unassigned) [Example 64, 3-Chloro-4-(2,3-dimethyl-cyclohexyloxy)-benzonitrile], the IC50 in test [1] (setting [3]) worked out at 0.217 µM; in test [2] (setting [5]), 0.119 µM.
Turning to `N#Cc1ccc(O[C@@H]2CCCC[C@H]2C#N)cc1C(F)(F)F` (single isomer, unassigned) [Example 73, (trans)-(+)-4-(2-Cyano-cyclohexyloxy)-2-trifluoromethyl-benzonitrile], the IC50 is 0.196 µM in test [1] (setting [3]) and 0.061 µM in test [2] (AR Binding IC50, hAR extract).
`CC1(O)C[C@@H]2C[C@H]1CC2Oc1ccc(C#N)c(C(F)(F)F)c1` (stereo in doubt) [Example 1, 4-(5-Hydroxy-5-methyl-bicyclo[2.2.1]hept-2-yloxy)-2-trifluoromethyl-benzonitrile]: the IC50 in test [1] (setting [4]) was 0.08 µM; in test [2] (setting [5]), 0.655 µM.
As for `N#Cc1ccc(O[C@H]2CC3CC[C@@H]2C3)cc1Cl` (stereo in doubt) [Example 24, 4-(R)-(Bicyclo[2.2.1]hept-2-yloxy)-2-chloro-benzonitrile], the IC50 worked out at 0.015 µM in test [1] (setting [4]) and 0.106 µM in test [2] (AR Binding IC50, hAR extract).
Take `N#Cc1ccc(O[C@@H]2CC3CC[C@@H]2C3)cc1Cl` (stereo in doubt) [Example 25, 4-(S)-(Bicyclo[2.2.1]hept-2-yloxy)-2-chloro-benzonitrile]: the IC50 was < 0.00032 µM in test [1] (setting [3]) and 0.082 µM in test [2] (AR Binding IC50, hAR extract).
With `N#Cc1ccc(O[C@H]2CCCCC2c2ccccc2)cc1Cl` (stereo in doubt) [Example 33, 2-Chloro-4-(2-(S)-phenyl-(S)-cyclohexyloxy)-benzonitrile], the IC50 was 0.485 µM in test [1] (setting [3]) and 0.06 µM in test [2] (AR Binding IC50, hAR extract).
Consider `N#Cc1ccc(O[C@H]2CCCC[C@@H]2c2ccccc2)cc1C(F)(F)F` [Example 3, 4-(2-(R)-Phenyl-1-(S)-cyclohexyloxy)-2-trifluoromethyl-benzonitrile], for which the IC50 in test [1] (setting [3]) was > 1 µM; in test [2] (AR Binding IC50, hAR extract) it was 0.073 µM.
The corresponding values for `C=CCC1(Oc2ccc(C#N)c(C(F)(F)F)c2)CCCCC1` [Example 4, 4-(1-Allyl-cyclohexyloxy)-2-trifluoromethyl-benzonitrile] are > 1 µM and 0.048 µM.
In the case of `CCC1CCCCC1Oc1ccc(C#N)c(C(F)(F)F)c1` (stereo not shown) [Example 7, 4-(2-Ethyl-cyclohexyloxy)-2-trifluoromethyl-benzonitrile], the IC50 was 0.329 µM in test [1] (setting [3]) and 0.125 µM in test [2] (setting [5]).
As to `C[C@@H]1CCCC[C@@H]1Oc1ccc(C#N)c(C(F)(F)F)c1` [Example 9, (1S,2R)-4-(2-Methyl-cyclohexyloxy)-2-trifluoromethyl-benzonitrile], the concentration for half-maximal inhibition (IC50) in test [1] (setting [3]) is 0.751 µM; in test [2] (AR Binding IC50, hAR extract), 0.022 µM.
On to `N#Cc1ccc(OC2CCCC2)cc1C(F)(F)F` [Example 10], for which the IC50 came to 0.605 µM in test [1] (setting [3]) and 0.156 µM in test [2] (setting [5]).
With `N#Cc1ccc(OC2CCCCC2)cc1C(F)(F)F` [Example 11, 4-Cyclohexyloxy-2-trifluoromethyl-benzonitrile], the IC50 is 0.0005 µM in test [1] (setting [4]) and 0.39 µM in test [2] (setting [5]).
`CC1CCCC(C)C1Oc1ccc(C#N)c(C(F)(F)F)c1` (stereo not shown) [Example 12, 4-(2,6-Dimethyl-cyclohexyloxy)-2-trifluoromethyl-benzonitrile]: the half-inhibitory concentration (IC50) in test [1] (setting [3]) is > 1 µM; in test [2] (AR Binding IC50, hAR extract), 0.073 µM.
As for `CCCCC1(Oc2ccc(C#N)c(Cl)c2)CCCC1` [Example 21, 4-(1-Butyl-cyclopentyloxy)-2-chloro-benzonitrile], the IC50 in test [1] (setting [3]) was > 1 µM; in test [2] (setting [5]), 0.206 µM.
Turning to `CCC1CCCCC1Oc1ccc(C#N)c(Cl)c1` (stereo not shown) [Example 22, 2-Chloro-4-(2-ethyl-cyclohexyloxy)-benzonitrile], the IC50 was > 1 µM in test [1] (setting [3]) and 0.071 µM in test [2] (AR Binding IC50, hAR extract).
In the case of `CC1CCC(Oc2ccc(C#N)c(Cl)c2)C1` (stereo not shown) [Example 23, 2-Chloro-4-(3-methyl-cyclopentyloxy)-benzonitrile], the IC50 in test [1] (setting [3]) turned out to be 0.202 µM; in test [2] (setting [5]) it was 0.145 µM.
Consider `N#Cc1ccc(OC2CCCC(O)C2)cc1Cl` (stereo not shown) [Example 26, 2-Chloro-4-(3-hydroxy-cyclohexyloxy)-benzonitrile], for which the IC50 in test [1] (setting [4]) stood at 0.046 µM; in test [2] (setting [5]), 0.404 µM.
